Molecular target: His-tagged recombinant human TrkA (Homo sapiens (Human), UniProt P04629)
Assay: TrkA LanthaScreen Eu Kinase Binding Assay
Details: averaged IC50; LanthaScreen binding assay of Example A; read-out: TrkA Enzyme IC50
Procedure: TrkA binding activity was determined in a TrkA LanthaScreen™ Eu Kinase Binding Assay. 5 nM His-tagged recombinant human TrkA (6HIS tagged cytoplasmic domain from Invitrogen, Catalog No. PV3144) was incubated with 4 nM Alexa-Fluor® Tracer 236 (Invitrogen Cat. No. PV5592), 2 nM biotinylated anti-His (Invitrogen Cat. No. PV6090), and 2 nM europium-labeled Streptavidin (Invitrogen Cat. No. PV5899), in buffer (25 mM MOPS, pH 7.5, 5 mM MgCl2, 0.005% Triton X-100). Three fold serial dilutions of compounds of the invention in DMSO were added to a final percentage of 2% DMSO. After 60-minute incubation at 22° C., the reaction was measured using the EnVision mutlimode plate reader (PerkinElmer) via TR-FRET dual wavelength detection at […]. The percent of control was calculated using a ratiometric emission factor. The IC50 values were determined by fitting a four parameter model to the percent of control data.
Table A provides averaged IC50 values for compounds of the invention when tested in the assay of Example A, where A represents an averaged IC50 value<100 nM.

Chain of His-tagged recombinant human TrkA (P04629 440-796): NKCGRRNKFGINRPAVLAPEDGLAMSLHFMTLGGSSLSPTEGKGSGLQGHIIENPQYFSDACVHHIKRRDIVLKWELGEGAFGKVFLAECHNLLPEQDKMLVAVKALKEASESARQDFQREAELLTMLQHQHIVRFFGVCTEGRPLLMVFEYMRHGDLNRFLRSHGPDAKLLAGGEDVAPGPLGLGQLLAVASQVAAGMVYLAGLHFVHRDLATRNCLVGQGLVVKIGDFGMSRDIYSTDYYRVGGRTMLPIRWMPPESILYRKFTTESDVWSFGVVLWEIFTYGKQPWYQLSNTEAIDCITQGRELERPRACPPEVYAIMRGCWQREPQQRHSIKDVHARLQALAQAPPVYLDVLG

IC50, < 100 nM:
CCOc1ncc(-c2nn(-c3ccccc3)c(NC(=O)N[C@@H]3CN(CCOC)C[C@H]3c3ccc(F)c(F)c3)c2C)cn1 [Example 9, 1-((3S,4R)-4-(3,4-difluorophenyl)-1-(2-methoxyethyl)pyrrolidin-3-yl)-3-(3-(2-ethoxypyrimidin-5-yl)-4-methyl-1-phenyl-1H-pyrazol-5-yl)urea]
COCCN1C[C@@H](NC(=O)Nc2c(C)c(-c3cnc(C4CC4)nc3)nn2-c2ccccc2)[C@H](c2ccc(F)c(F)c2)C1 [Example 10, 1-(3-(2-cyclopropylpyrimidin-5-yl)-4-methyl-1-phenyl-1H-pyrazol-5-yl)-3-((3S,4R)-4-(3,4-difluorophenyl)-1-(2-methoxyethyl)pyrrolidin-3-yl)urea]
COCCN1C[C@@H](NC(=O)Nc2c(C)c(-c3cnc(C4CC4)nc3)nn2-c2ccccc2)[C@H](c2ccc(F)cc2)C1 [Example 11, 1-(3-(2-cyclopropylprimidin-5-yl)-4-methyl-1-phenyl-1H-pyrazol-5-yl)-3-((3S,4R)-4-(4-fluorophenyl)-1-(2-methoxyethyl)pyrrolidin-3-yl)urea]
COCCN1C[C@@H](NC(=O)Nc2c(C)c(-c3cnc(OC)nc3)nn2-c2ccccc2)[C@H](c2cc(F)cc(F)c2)C1 [Example 12, 1-((3S,4R)-4-(3,5-difluorophenyl)-1-(2-methoxyethyl)pyrrolidin-3-yl)-3-(3-(2-methoxypyrimidin-5-yl)-4-methyl-1-phenyl-1H-pyrazol-5-yl)urea]
COCCN1C[C@@H](NC(=O)Nc2c(C)c(-c3cnc(C)nc3)nn2-c2ccccc2)[C@H](c2ccc(F)cc2)C1 [Example 13, 1-((3S,4R)-4-(4-fluorophenyl)-1-(2-methoxyethyl)pyrrolidin-3-yl)-3-(4-methyl-3-(2-methylpyrimidin-5-yl)-1-phenyl-1H-pyrazol-5-yl)urea]
CCOc1ncc(-c2nn(-c3ccccc3)c(NC(=O)N[C@@H]3CN(CCOC)C[C@H]3c3ccc(F)cc3)c2C)cn1 [Example 15, 1-(3-(2-ethoxypyrimidin-5-yl)-4-methyl-1-phenyl-1H-pyrazol-5-yl)-3-((3S,4R)-4-(4-fluorophenyl)-1-(2-methoxyethyl)pyrrolidin-3-yl)urea]
CCOc1ncc(-c2nn(-c3ccccc3)c(NC(=O)N[C@@H]3CN(CCOC)C[C@H]3c3cc(F)cc(F)c3)c2C)cn1 [Example 16, 1-((3S,4R)-4-(3,5-difluorophenyl)-1-(2-methoxyethyl)pyrrolidin-3-yl)-3-(3-(2-ethoxypyrimidin-5-yl)-4-methyl-1-phenyl-1H-pyrazol-5-yl)urea]
COCCN1C[C@@H](NC(=O)Nc2c(C)c(-c3ccc(=O)n(C)n3)nn2-c2ccccc2)[C@H](c2ccc(F)c(F)c2)C1 [Example 17, 1-((3S,4R)-4-(3,4-difluorophenyl)-1-(2-methoxyethyl)pyrrolidin-3-yl)-3-(4-methyl-3-(1-methyl-6-oxo-1,6-dihydropyridazin-3-yl)-1-phenyl-1H-pyrazol-5-yl)urea]
COCCN1C[C@@H](NC(=O)Nc2c(C)c(-c3ccc(=O)n(C)n3)nn2-c2ccccc2)[C@H](c2ccc(F)cc2)C1 [Example 18, 1-((3S,4R)-4-(4-fluorophenyl)-1-(2-methoxyethyl)pyrrolidin-3-yl)-3-(4-methyl-3-(1-methyl-6-oxo-1,6-dihydropyridazin-3-yl)-1-phenyl-1H-pyrazol-5-yl)urea]
COCCN1C[C@@H](NC(=O)Nc2c(C)c(-c3ccc(=O)n(C)n3)nn2-c2ccccc2)[C@H](c2cc(F)cc(F)c2)C1 [Example 19, 1-((3S,4R)-4-(3,5-difluorophenyl)-1-(2-methoxyethyl)pyrrolidin-3-yl)-3-(4-methyl-3-(1-methyl-6-oxo-1,6-dihydropyridazin-3-yl)-1-phenyl-1H-pyrazol-5-yl)urea]
COCCN1C[C@@H](NC(=O)Nc2c(C)c(-c3cnc(NC4CC4)nc3)nn2-c2ccccc2)[C@H](c2ccc(F)c(F)c2)C1 [Example 20, 1-(3-(2-(cyclopropylamino)pyrimidin-5-yl)-4-methyl-1-phenyl-1H-pyrazol-5-yl)-3-((3S,4R)-4-(3,4-difluorophenyl)-1-(2-methoxyethyl)pyrrolidin-3-yl)urea]
COCCN1C[C@@H](NC(=O)Nc2c(C)c(-c3cnc(NC4CC4)nc3)nn2-c2ccccc2)[C@H](c2ccc(F)cc2)C1 [Example 21, 1-(3-(2-(cyclopropylamino)pyrimidin-5-yl)-4-methyl-1-phenyl-1H-pyrazol-5-yl)-3-((3S,4R)-4-(4-fluorophenyl)-1-(2-methoxyethyl)pyrrolidin-3-yl)urea di-trifluoroacetate]
COCCN1C[C@@H](NC(=O)Nc2c(C)c(-c3ccc(=O)n(C)c3)nn2-c2ccccc2)[C@H](c2cc(F)c(F)c(F)c2)C1 [Example 26, 1-((3S,4R)-1-(2-methoxyethyl)-4-(3,4,5-trifluorophenyl)pyrrolidin-3-yl)-3-(4-methyl-3-(1-methyl-6-oxo-1,6-dihydropyridin-3-yl)-1-phenyl-1H-pyrazol-5-yl)urea]
COCCN1C[C@@H](NC(=O)Nc2c(C)c(-c3ccc(=O)n(C)c3)nn2-c2ccccc2)[C@H](c2cccc(F)c2)C1 [Example 27, 1-((3S,4R)-4-(3-fluorophenyl)-1-(2-methoxyethyl)pyrrolidin-3-yl)-3-(4-methyl-3-(1-methyl-6-oxo-1,6-dihydropyridin-3-yl)-1-phenyl-1H-pyrazol-5-yl)urea]
COCCN1C[C@@H](NC(=O)Nc2c(C)c(-c3cnc(=O)n(C)c3)nn2-c2ccccc2)[C@H](c2ccc(F)c(F)c2)C1 [Example 28, 1-((3S,4R)-4-(3,4-difluorophenyl)-1-(2-methoxyethyl)pyrrolidin-3-yl)-3-(4-methyl-3-(1-methyl-2-oxo-1,2-dihydropyrimidin-5-yl)-1-phenyl-1H-pyrazol-5-yl)urea]
COCCN1C[C@@H](NC(=O)Nc2c(C)c(-c3cc(C)c(=O)n(C)c3)nn2-c2ccccc2)[C@H](c2ccc(F)c(F)c2)C1 [Example 29, 1-((3S,4R)-4-(3,4-difluorophenyl)-1-(2-methoxyethyl)pyrrolidin-3-yl)-3-(3-(1,5-dimethyl-6-oxo-1,6-dihydropyridin-3-yl)-4-methyl-1-phenyl-1H-pyrazol-5-yl)urea]
COCCN1C[C@@H](NC(=O)Nc2c(C)c(S(C)(=O)=O)nn2-c2ccccc2)[C@H](c2ccc(F)c(F)c2)C1 [Example 30, 1-((3S,4R)-4-(3,4-difluorophenyl)-1-(2-methoxyethyl)pyrrolidin-3-yl)-3-(4-methyl-3-(methylsulfonyl)-1-phenyl-1H-pyrazol-5-yl)urea]
COCCN1C[C@@H](NC(=O)Nc2c(C)c(C(C)=O)nn2-c2ccccc2)[C@H](c2ccc(F)c(F)c2)C1 [Example 31, 1-(3-acetyl-4-methyl-1-phenyl-1H-pyrazol-5-yl)-3-((3S,4R)-4-(3,4-difluorophenyl)-1-(2-methoxyethyl)pyrrolidin-3-yl)urea]
